Laboratory results: patent US8206732B2, “Pyrithione biocides enhanced by silver, copper, or zinc ions” (Arch Chemicals, Inc., priority 1999, dated 2012)
“And” between values parts separate entries of the source, which are not always exact repeats. Equal values may be shown once.

Legend:
[1] = system: Fusarium sp. free-living cells; assay: Viable free-living cells in bulk metalworking fluid (Example 5); type: cell-based; details: 100 PPM NaPT, 10 PPM Zn (II) or both, 4 days after treatment
Experimental: (§1) Experiments were conducted to investigate the efficacy of the composition of the present invention to inhibit the survival, growth, and proliferation of free-living and biofilm populations of bacteria and fungi in metalworking fluids. […] Metalworking fluids (MWF) employed included 5% soluble oil MWF, 5% semi-synthetic MWF, or 5% synthetic MWS. For testing against bacteria, metalworking fluids were supplemented with 2% (weight-to-weight ratio (w:w)) of 5 g/L yeast extract (Difco), Metalworking fluids were supplemented with 2% (weight-to-weight (w:w)) of Tryptic Soy Broth (Difco) for fungal tests.
(§2) For each experiment, three ml of a 5% metalworking fluid was added to each of twelve, sterile, 16 mm×150 mm glass culture tubes. […] Fusarium sp. was added to the tubes to final concentrations of 10^5 spores/ml for the fungal tests. Tubes incubated for 3 days at 28° C. and 180 rpms.
(§3) After the treatments additions were performed, the culture tubes resumed incubation at 28° C., 180 rpms for an additional 4 days.
(§4) After 4 days, culture tubes were removed from the incubator and viable counts of organisms from the bulk MWF fluid and the biofilm were determined using serial dilution and drop plating techniques. For biofilms, polycarbonate discs were removed from tubes, dip-rinsed in three successive washes of de-ionized water to remove loosely attached cells, and transferred to 25 mm×150 mm culture tubes containing 10 ml of sterile, de-ionized water. Biofilms were removed from discs and resuspended by vortexing tubes for 30 seconds. Bacteria were plated on to R2A Agar plates and incubated at 37° C. Fungi were plated onto Malt Agar plates and incubated at 28° C. Mean colony forming units per ml (for bulk) and per square cm (cm^2) biofilm were determined for each experimental treatment.

[2] = system: Pseudomonas aeruginosa NCIMB 6749; assay: Zone of inhibition test (paper disc on TSA); type: cell-based; details: 6.5 mm discs; 0.135% pyrithione, 0.1% ZnCl2 or both; 28° C., 24 hr
[3] = system: Fusarium sp.; assay: MIC in Tryptic Soy Broth, microtiter (Example 1); type: cell-based; details: TSB with 0.5 ppm Cu (II), 28° C., 5 days
Experimental: Equal volumes of bacterial suspension (10^6 bacteria per milliliter of TSB) containing Pseudomonas aeruginosa ATCC 9027 or fungal spore suspension (10^5 spores per milliliter of TSB) containing Aspergillus niger ATCC 6275 or species of Fusarium and Cephalosporium isolated from contaminated metalworking fluid were added to each microtiter plate well, and the plates were incubated at 28° C. Controls were prepared for cultures inoculated into TSB with and without Cu (II).

[4] = system: Pityrosporum ovale 1452; assay: Checkerboard MIC test, pyrithiones with silver salts; type: cell-based; details: NaPT alone or in the inhibitory mixture with silver salt; Ushijima Medium pH 5.5, 35° C., 1 to 2 days
[5] = system: P. aeruginosa 9027 biofilm; assay: Viable biofilm cells on discs in metalworking fluid (Example 5); type: cell-based, Pseudomonas aeruginosa; details: 100 PPM NaPT; for viable biofilm cells: 5% soluble oil MWF, 2.5 PPM Zn(II) or both, 4 days
[6] = system: Fusarium sp. biofilm; assay: as above; type: cell-based; details: polycarbonate disc, 100 PPM NaPT, 10 PPM Zn (II) or both, 4 days after treatment
Experimental: as §1, §2, §3, §4

Question: Which viable free-living microorganisms ([1]; 5% semisynth. MWF) does the source give for `[Na+].[O-][n+]1ccccc1[S-]` [NaPT, sodium pyrithione] here?
Answer: The viable free-living microorganisms was 2.8 × 10^5 cells/ml.

Question: And the viable free-living microorganisms ([1]; 5% solub. oil MWF)?
Answer: The viable free-living microorganisms was 4.2 × 10^6 cells/ml.

Question: And the viable free-living microorganisms ([1]; 5% synthetic MWF)?
Answer: The viable free-living microorganisms was 6.0 × 10^6 cells/ml.

Question: What about the viable free-living microorganisms ([1]; 100% TSB) of the same molecule?
Answer: Its viable free-living microorganisms is 0 cells/ml.

Question: And the “Zone of Inhibition” value [2]?
Answer: Its value is 8 mm.

Question: What about the “MIC NaPT (with 0.5 ppm Cu)” value [3] of the same molecule?
Answer: Its value is 8 ppm.

Question: And the “MIC NaPT” value [4]?
Answer: The value was 4 ppm.

Question: And the viable biofilm microorganisms ([5]; 5% solub. oil MWF, polycarbonate disc, 10 PPM Zn (II) or both, 4 days after treatment)?
Answer: Its viable biofilm microorganisms is 2.0 × 10^5 cells/cm^2 and 2.6 × 10^4 cells/cm^2.

Question: And the viable biofilm cells ([5]; Polycarbonate surface)?
Answer: The viable biofilm cells was 2.8 × 10^4 cells/cm^2.

Question: What about the viable biofilm cells ([5]; Rubber surface) of the same molecule?
Answer: Its viable biofilm cells is 5.3 × 10^2 cells/cm^2.

Question: And the viable biofilm cells ([5]; Steel surface)?
Answer: The viable biofilm cells was 1.1 × 10^5 cells/cm^2.

Question: And the viable biofilm microorganisms ([6]; 5% semisynth. MWF)?
Answer: Its viable biofilm microorganisms is 18 cells/cm^2.

Question: What about the viable biofilm microorganisms ([6]; 5% solub. oil MWF) of the same molecule?
Answer: The viable biofilm microorganisms was 4.6 × 10^5 cells/cm^2.

Question: What about the viable biofilm microorganisms ([6]; 5% synthetic MWF) of the same molecule?
Answer: The viable biofilm microorganisms was 7.3 × 10^4 cells/cm^2.

Question: And the viable biofilm microorganisms ([6]; 100% TSB)?
Answer: The viable biofilm microorganisms was 96 cells/cm^2.
